The record followed here is patent US20040009973A1, “Novel potassium channels modulators” (4SC AG, priority 2002, published 2004).

Structures are written as SMILES.

The target of this assay is T1, BK potassium channel, cloned hSlo (α-hSlo and β-bSlo) in CHO cells (Homo sapiens, UniProt Q12791).
T1 construct: expressed in transfected cells; host or cells: CHO cells, permanently transfected
T1 sequence (Q12791 1-1178 isoform Q12791-5): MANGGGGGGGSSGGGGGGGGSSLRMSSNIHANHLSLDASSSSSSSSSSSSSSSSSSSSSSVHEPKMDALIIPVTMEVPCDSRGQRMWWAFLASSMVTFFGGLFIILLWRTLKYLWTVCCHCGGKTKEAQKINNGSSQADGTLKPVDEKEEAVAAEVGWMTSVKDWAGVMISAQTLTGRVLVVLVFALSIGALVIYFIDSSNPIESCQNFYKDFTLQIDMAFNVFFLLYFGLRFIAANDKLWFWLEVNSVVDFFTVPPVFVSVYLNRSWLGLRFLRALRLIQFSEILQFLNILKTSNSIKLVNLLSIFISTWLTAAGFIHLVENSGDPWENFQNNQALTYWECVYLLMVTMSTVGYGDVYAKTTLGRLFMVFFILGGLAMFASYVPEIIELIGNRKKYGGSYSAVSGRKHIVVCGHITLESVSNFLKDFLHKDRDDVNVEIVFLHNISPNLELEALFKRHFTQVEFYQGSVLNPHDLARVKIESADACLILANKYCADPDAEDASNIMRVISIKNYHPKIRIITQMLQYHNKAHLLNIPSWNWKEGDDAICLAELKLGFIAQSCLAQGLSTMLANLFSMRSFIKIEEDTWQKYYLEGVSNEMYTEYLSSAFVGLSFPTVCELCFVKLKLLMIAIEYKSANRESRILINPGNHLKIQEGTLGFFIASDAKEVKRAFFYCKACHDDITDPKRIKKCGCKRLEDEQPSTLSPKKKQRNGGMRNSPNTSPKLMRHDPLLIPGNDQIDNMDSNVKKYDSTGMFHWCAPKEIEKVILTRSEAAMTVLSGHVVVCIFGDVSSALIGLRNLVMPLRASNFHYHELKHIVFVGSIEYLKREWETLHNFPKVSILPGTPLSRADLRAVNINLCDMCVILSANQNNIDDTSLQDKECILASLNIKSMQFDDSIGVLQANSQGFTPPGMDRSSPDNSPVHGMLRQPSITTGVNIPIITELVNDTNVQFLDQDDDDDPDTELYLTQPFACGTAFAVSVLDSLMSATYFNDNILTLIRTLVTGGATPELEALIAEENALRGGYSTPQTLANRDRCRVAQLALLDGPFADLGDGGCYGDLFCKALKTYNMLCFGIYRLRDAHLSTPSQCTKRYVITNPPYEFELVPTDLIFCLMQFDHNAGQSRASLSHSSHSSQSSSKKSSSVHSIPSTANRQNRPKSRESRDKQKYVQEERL
T1 sequence (Q28067 2-191 partner limits assumed): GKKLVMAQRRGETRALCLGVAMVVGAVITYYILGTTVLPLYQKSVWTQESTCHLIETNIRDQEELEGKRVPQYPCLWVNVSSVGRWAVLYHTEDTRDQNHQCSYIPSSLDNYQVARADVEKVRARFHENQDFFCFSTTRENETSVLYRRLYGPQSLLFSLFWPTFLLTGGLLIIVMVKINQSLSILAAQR
The assay is described as follows: Em-Assay: membrane potential with voltage sensitive dye DiBAC(4)3, fluorescence plate reader. Type of assay: cell-based. To be noted: compound 50 μM; NS004 25 or 50 μM; hSlo transfected CHO cells; change in DiBAC(4)3 fluorescence intensity. From the text: The large conductance, voltage-dependent and Ca^2+-activated potassium channel BK is a potassium selective ion channel and belongs to the subfamily of KCa channels. Four BK alpha-subunits form a functional channel that can be regulated by intracellular Ca^2+ concentration, membrane voltage, and other mechanisms like phosphorylation states or beta subunits. To test the biological activity of the compounds, we applied two different techniques, a fluorescence based assay using a voltage sensitive dye (Em-Assay) as well as exploiting electrophysiological methods.
CHO cells permanently transfected with cloned hSlo (α-hSlo and β-bSlo), yielding typical BK potassium currents (Zhou et al., Pflügers Arch., 436: 725-734 (1998), were used for the evaluation of compound activity. Activation or inhibition of BK channels in these cells leads to a change of the electrochemical gradient causing a hyperpolarized or depolarised membrane potential, respectively.
To determine changes in the membrane potential of the cells we used the voltage sensitive dye DiBAC(4)3 (Molecular Probes) in a kinetic assay system using a fluorescent plate reader (Manning and Sontheimer, J. Neurosci, Meth., 91: 73-81 (1999). The anionic bis-oxonol DiBAC(4)3 is a voltage sensitive dye which partitions from the extracellular environment into the cell where it reversibly binds to intracellular proteins, a kinetic process depending on the membrane potential of the cell. At depolarised potentials (i.e. at a reduced K^+ efflux due to blocked K^+ channels) the dye accumulates in the cell leading to an increased fluorescence intensity, due to its increased fluorescence if bound to cellular proteins. At hyperpolarized potentials (i.e. at an increased K^+ efflux due to the opening of K^+ channels), the dye partitions out of the cell causing a decreased fluorescence intensity.
hSlo transfected CHO cells where maintained in DMEM supplemented with 10% FCS, 250 μg/ml Geneticin, 100 μg/ml Hygromycin, 1×HT-Supplement, and 1×Non-essential Amino Acids and cultured in a humidified CO2 incubator. After trypsination, cells where plated with a density of 5×10^4 cells per well on a clear 96-well plate and incubated for 24 h. Cells where washed once with PBS, once with PBS containing 20 mM HEPES (adjusted to pH 7.4 with NaOH) and 2 μM DIBAC(4)3 (DPBS-DiBAC solution). 180 μl of the dPBS-DiBAC solution was then added to the cells and the plate incubated for 30-60 min at 37° C. During this time the dye could partition into the cells and reach a certain steady-state distribution, depending on the resting membrane potential. Test and reference compounds were stored as DMSO stock solutions and diluted in dPBS-DiBAC solution to the desired concentration.
Fluorescence intensity (Ex.: 485 nm/Em.: 520 nm) of each well was detected in the plate reader (Fluostar, BMG) every 60 seconds. After recording the baseline fluorescence for 7 minutes, 20 μl test—and reference compounds were added and the fluorescence intensity was detected for additional 15 minutes. Background was subtracted, data values were normalized and expressed as a change in fluorescence intensity against time. The change in fluorescence intensity caused by the test compounds was evaluated, compared to the effect of the reference compound NS004, and the ratio was determined (see Table I).
Take `Fc1cccc(Cl)c1CNc1ccc(NCc2c(F)cccc2Cl)cc1` [Compound 92]: the “Em effect: ratio of the compound effect compared to the maximal effect of NS004” value (shortened to “Em effect: ratio of the compound effect”) is “+ (0-1 = +)”.

Consider `CC(C)(C)c1ccc(CNc2cc(NCc3ccc(-c4csnn4)cc3)cc(C(F)(F)F)c2)cc1` [Compound 79, N-(4-tert-butylbenzyl)-N′-(4-[1,2,3]thiadiazol-4-yl-benzyl)-5-tri-fluoromethylbenzene-1,3-diamine], for which the “Em effect: ratio of the compound effect” value is reported as “+ (0-1 = +)”. With `CS(=O)(=O)c1ccc(CNc2cccc(NCc3cccc(F)c3)c2)cc1` [Compound 45], the “Em effect: ratio of the compound effect” value is “+ (0-1 = +)”. As for `Fc1ccc(CNc2cccc(NCc3ccc(-c4csnn4)cc3)c2)c(F)c1` [Compound 52, N-(2,4-difluorobenzyl)-N′-(4-[1,2,3]thiadiazol-4-yl-benzyl)-benzene-1,3-diamine], the entry is “+ (0-1 = +)”; as for `COc1cccc(CNc2cccc(NCc3ccc(-c4csnn4)cc3)c2)c1` [Compound 59, N-(3-methoxybenzyl)-N′-(4-[1,2,3]thiadiazol-4-yl-benzyl)-benzene-1,3-diamine], “+ (0-1 = +)”. Consider `Fc1cccc(CNc2ccc(NCc3cccc(F)c3)c(Cl)c2)c1` [Compound 107], for which the “Em effect: ratio of the compound effect” value is reported as “+ (0-1 = +)”. As for `Cc1cc(NCc2ccc(C(F)(F)F)cc2)ccc1NCc1ccc(C(F)(F)F)cc1` [Compound 101, 2-methyl-N1,N4-bis-(4-trifluoromethylbenzyl)-benzene-1,4-diamine], the entry is “+ (0-1 = +)”. With `Clc1cc(NCc2ccc(Br)cc2)ccc1NCc1ccccc1` [Compound 19], the “Em effect: ratio of the compound effect” value is reported as “+ (0-1 = +)”.

With `Clc1ccccc1CNc1cccc(NCc2ccccc2Cl)c1` [Compound 32], the “Em effect: ratio of the compound effect” value is “+ (0-1 = +)”. As for `Fc1cccc(Cl)c1CNc1cccc(NCc2c(F)cccc2Cl)c1` [Compound 29], the entry is “+ (0-1 = +)”; as for `CC(C)(C)c1ccc(CNc2cc(NCc3csc4ccc(Cl)cc34)cc(C(F)(F)F)c2)cc1` [Compound 78], “+ (0-1 = +)”.

For the molecule `CC(C)(C)c1ccc(CNc2cc(NCc3ccc(C(C)(C)C)cc3)cc(C(F)(F)F)c2)cc1` [Compound 77, N,N′-bis-(4-tert-butylbenzyl)-5-trifluoromethylbenzene-1,3-diamine], the “Em effect: ratio of the compound effect” value is given as “+ (0-1 = +)”. With `Cc1cc(NCc2c(F)cccc2Cl)ccc1NCc1c(F)cccc1Cl` [Compound 93], the “Em effect: ratio of the compound effect” value was “+ (0-1 = +)”. For the molecule `Clc1ccccc1CNc1ccc(NCc2ccccc2Cl)c(Cl)c1` [Compound 96], the “Em effect: ratio of the compound effect” value is on record as “+ (0-1 = +)”. Take `Fc1cccc(F)c1CNc1cccc(NCc2csc3ccc(Cl)cc23)c1` [Compound 49, N-(5-chlorobenzo[b]thiophen-3-ylmetbyl)-N′-(2,6-difluorobenzyl)-benzene-1,3-diamine]: the “Em effect: ratio of the compound effect” value is recorded as “+ (0-1 = +)”.

Consider `FC(F)(F)c1cc(NCc2ccccc2Cl)cc(NCc2ccccc2Cl)c1` [Compound 75], for which the “Em effect: ratio of the compound effect” value was “+ (0-1 = +)”. Turning to `O=[N+]([O-])c1ccc(CNc2cc(NCc3ccc4ccccc4c3)cc(C(F)(F)F)c2)cc1` [Compound 8], the “Em effect: ratio of the compound effect” value was “+ (0-1 = +)”. Take `Fc1cccc(Cl)c1CNc1ccc(NCc2c(F)cccc2Cl)c(Cl)c1` [Compound 94]: the “Em effect: ratio of the compound effect” value is on record as “+ (0-1 = +)”. As for `O=[N+]([O-])c1ccc(CNc2ccc(NCc3ccc4ccccc4c3)cc2Cl)cc1` [Compound 25], the entry is “+ (0-1 = +)”; as for `COc1cccc(CNc2cccc(NCc3cccc(Cl)c3)c2)c1` [Compound 58, N-(3-chlorobenzyl)-N′-(3-methoxybenzyl)-benzene-1,3-diamine], “+ (0-1 = +)”; as for `Fc1ccc(CNc2cccc(NCc3csc4ccc(Cl)cc34)c2)c(Cl)c1` [Compound 64, N-(5-chlorobenzo[b]thiophen-3-ylmethyl)-N′-(2-chloro-4-fluorobenzyl)-benzene-1,3-diamine], “+ (0-1 = +)”.

Consider `FC(F)(F)c1cc(NCc2ccc(Br)cc2)cc(NCc2ccc(Br)cc2)c1` [Compound 2], for which the “Em effect: ratio of the compound effect” value is given as “+ (0-1 = +)”.

Consider `Clc1cc(NCc2ccc(-c3csnn3)cc2)c(Cl)cc1NCc1ccc(-c2csnn2)cc1` [Compound 89], for which the “Em effect: ratio of the compound effect” value was “+ (0-1 = +)”. `CS(=O)(=O)c1ccc(CNc2cccc(NCc3ccc(F)cc3Cl)c2)cc1` [Compound 65, N-(2-chloro-4-fluorobenzyl)-N′-(4-methanesulfonylbenzyl)-benzene-1,3-diamine]: the “Em effect: ratio of the compound effect” value is on record as “+ (0-1 = +)”. As to `O=[N+]([O-])c1ccc(CNc2cccc(NCc3ccc([N+](=O)[O-])cc3)c2)cc1` [Compound 10], the “Em effect: ratio of the compound effect” value is on record as “+ (0-1 = +)”. As for `Fc1cccc(CNc2ccc(NCc3cccc(F)c3)cc2)c1` [Compound 100, N,N′-bis(3-fluorobenzyl)-benzene-1,4-diamine], the entry is “+ (0-1 = +)”.

Regarding `CS(=O)(=O)c1ccc(CNc2cccc(NCc3c(F)cccc3F)c2)cc1` [Compound 50, N-(2,6-difluorobenzyl)-N′-(4-methanesulfonylbenzyl)-benzene-1,3-diamine], the “Em effect: ratio of the compound effect” value is reported as “+ (0-1 = +)”. Regarding `FC(F)(F)c1cc(NCc2ccc(Br)cc2)cc(NCc2cccc(Cl)c2)c1` [Compound 5], the “Em effect: ratio of the compound effect” value was “++ (>1-1.5 = ++)”.

On to `FC(F)(F)c1ccccc1CNc1cccc(NCc2ccc(-c3csnn3)cc2)c1` [Compound 61, N-(4-[1,2,3]thiadiazol-4-yl-benzyl)-N′-(2-tri-fluoromethylbenzyl)-benzene-1,3-diamine], for which the “Em effect: ratio of the compound effect” value is listed as “+ (0-1 = +)”. With `Cc1cc(NCc2ccc(-c3csnn3)cc2)ccc1NCc1ccc(-c2csnn2)cc1` [Compound 87], the “Em effect: ratio of the compound effect” value is “+ (0-1 = +)”.

Consider `CC(C)(C)c1ccc(CNc2cc(NCc3ccc(C(F)(F)F)cc3)cc(C(F)(F)F)c2)cc1` [Compound 84], for which the “Em effect: ratio of the compound effect” value is reported as “+ (0-1 = +)”.

On to `CS(=O)(=O)c1ccc(CNc2cccc(NCc3ccccc3C(F)(F)F)c2)cc1` [Compound 63, N-(4-methanesulfonylbenzyl)-N′-(2-tri-fluoromethylbenzyl)-benzene-1,3-diamine], for which the “Em effect: ratio of the compound effect” value is recorded as “+ (0-1 = +)”. As for `Clc1cc(NCc2ccc(-c3csnn3)cc2)ccc1NCc1ccc(-c2csnn2)cc1` [Compound 88], the “Em effect: ratio of the compound effect” value is listed as “+ (0-1 = +)”.

On to `FC(F)(F)c1ccc(CNc2ccc(NCc3ccc(C(F)(F)F)cc3)c(Cl)c2)cc1` [Compound 105], for which the “Em effect: ratio of the compound effect” value is “+ (0-1 = +)”.
